Drawing on patent US10907197B2, “Probes for imaging huntingtin protein” (CHDI Foundation, Inc., priority 2014, dated 2021), this text covers IC50 for 51 compounds.

The assay addresses T1, Q46 protein aggregates (Homo sapiens, UniProt P42858, INS38QQQQQQQQQQQQQQQQQQQQQQQQQ).
T1 construct: 33 μM GST-Q46 was incubated with 150 μg/mL thrombin in assay buffer (150 mM NaCl, 50 mM Tris pH 8.0) and 2 mM CaCl2 for 16 hr at 37° C; fused on or other part: GST at the N-terminus
Description: Q46 Radioligand Binding Assay (RBA). The conditions noted are these: displacement of 10 nM [3H3]MK-3328 from 5 μM Q46 protein aggregates, 60 min at 37° C. Here is the method:
Q46 Radioligand Binding Assay
For radioligand binding assays (RBA) GST-Q46 protein was generated based on a previous publication (Scherzinger et al. Cell, Vol. 90, 549-558, Aug. 8, 1997). For experiments 33 μM GST-Q46 was incubated with 150 μg/mL thrombin in assay buffer (150 mM NaCl, 50 mM Tris pH 8.0) and 2 mM CaCl2 for 16 hr at 37° C. Aggregated Q46 was pelleted by centrifugation for 5 min at 13,000 rpm in a bench top centrifuge and re-dissolved in the same volume of assay buffer. Test compounds were prepared by titration in DMSO at 11 concentrations from 33 μM to 1 nM. For the RBA, Q46 protein aggregates and test compounds were pre-incubated in assay buffer for 20 min at room temperature, in 140 μL/well in a 96-well plate (pp, round bottom). Then, ligand was added in 10 μL/well and incubated for 60 min at 37° C. Final assay concentrations were 1 μM to 30 pM test compound, 5 μM Q46 protein (equivalent monomer concentration) and 10 nM ligand [^3H3]MK-3328 (Harrision et al., ACS Med. Chem. Lett., 2 (2011), pp 498-502). Samples were transferred onto GF/B filter plates and washed 2× with 200 μL PBS using a Filtermate Harvester. After drying filter plates for 1 hr at 37° C., the back of the plates was sealed with foil and 30 μL/well scintillation fluid (Packard MicroScint 40) was added, incubated for incubated for 15 min in the dark and counted in a TopCount reader. […] IC50 values were determined with a sigmoidal inhibition model with four variables (top, bottom, slope, IC50) in a global fit using the normalized replicate data.

T1 sequence (P42858 with tags, fused parts or gaps with the stated changes): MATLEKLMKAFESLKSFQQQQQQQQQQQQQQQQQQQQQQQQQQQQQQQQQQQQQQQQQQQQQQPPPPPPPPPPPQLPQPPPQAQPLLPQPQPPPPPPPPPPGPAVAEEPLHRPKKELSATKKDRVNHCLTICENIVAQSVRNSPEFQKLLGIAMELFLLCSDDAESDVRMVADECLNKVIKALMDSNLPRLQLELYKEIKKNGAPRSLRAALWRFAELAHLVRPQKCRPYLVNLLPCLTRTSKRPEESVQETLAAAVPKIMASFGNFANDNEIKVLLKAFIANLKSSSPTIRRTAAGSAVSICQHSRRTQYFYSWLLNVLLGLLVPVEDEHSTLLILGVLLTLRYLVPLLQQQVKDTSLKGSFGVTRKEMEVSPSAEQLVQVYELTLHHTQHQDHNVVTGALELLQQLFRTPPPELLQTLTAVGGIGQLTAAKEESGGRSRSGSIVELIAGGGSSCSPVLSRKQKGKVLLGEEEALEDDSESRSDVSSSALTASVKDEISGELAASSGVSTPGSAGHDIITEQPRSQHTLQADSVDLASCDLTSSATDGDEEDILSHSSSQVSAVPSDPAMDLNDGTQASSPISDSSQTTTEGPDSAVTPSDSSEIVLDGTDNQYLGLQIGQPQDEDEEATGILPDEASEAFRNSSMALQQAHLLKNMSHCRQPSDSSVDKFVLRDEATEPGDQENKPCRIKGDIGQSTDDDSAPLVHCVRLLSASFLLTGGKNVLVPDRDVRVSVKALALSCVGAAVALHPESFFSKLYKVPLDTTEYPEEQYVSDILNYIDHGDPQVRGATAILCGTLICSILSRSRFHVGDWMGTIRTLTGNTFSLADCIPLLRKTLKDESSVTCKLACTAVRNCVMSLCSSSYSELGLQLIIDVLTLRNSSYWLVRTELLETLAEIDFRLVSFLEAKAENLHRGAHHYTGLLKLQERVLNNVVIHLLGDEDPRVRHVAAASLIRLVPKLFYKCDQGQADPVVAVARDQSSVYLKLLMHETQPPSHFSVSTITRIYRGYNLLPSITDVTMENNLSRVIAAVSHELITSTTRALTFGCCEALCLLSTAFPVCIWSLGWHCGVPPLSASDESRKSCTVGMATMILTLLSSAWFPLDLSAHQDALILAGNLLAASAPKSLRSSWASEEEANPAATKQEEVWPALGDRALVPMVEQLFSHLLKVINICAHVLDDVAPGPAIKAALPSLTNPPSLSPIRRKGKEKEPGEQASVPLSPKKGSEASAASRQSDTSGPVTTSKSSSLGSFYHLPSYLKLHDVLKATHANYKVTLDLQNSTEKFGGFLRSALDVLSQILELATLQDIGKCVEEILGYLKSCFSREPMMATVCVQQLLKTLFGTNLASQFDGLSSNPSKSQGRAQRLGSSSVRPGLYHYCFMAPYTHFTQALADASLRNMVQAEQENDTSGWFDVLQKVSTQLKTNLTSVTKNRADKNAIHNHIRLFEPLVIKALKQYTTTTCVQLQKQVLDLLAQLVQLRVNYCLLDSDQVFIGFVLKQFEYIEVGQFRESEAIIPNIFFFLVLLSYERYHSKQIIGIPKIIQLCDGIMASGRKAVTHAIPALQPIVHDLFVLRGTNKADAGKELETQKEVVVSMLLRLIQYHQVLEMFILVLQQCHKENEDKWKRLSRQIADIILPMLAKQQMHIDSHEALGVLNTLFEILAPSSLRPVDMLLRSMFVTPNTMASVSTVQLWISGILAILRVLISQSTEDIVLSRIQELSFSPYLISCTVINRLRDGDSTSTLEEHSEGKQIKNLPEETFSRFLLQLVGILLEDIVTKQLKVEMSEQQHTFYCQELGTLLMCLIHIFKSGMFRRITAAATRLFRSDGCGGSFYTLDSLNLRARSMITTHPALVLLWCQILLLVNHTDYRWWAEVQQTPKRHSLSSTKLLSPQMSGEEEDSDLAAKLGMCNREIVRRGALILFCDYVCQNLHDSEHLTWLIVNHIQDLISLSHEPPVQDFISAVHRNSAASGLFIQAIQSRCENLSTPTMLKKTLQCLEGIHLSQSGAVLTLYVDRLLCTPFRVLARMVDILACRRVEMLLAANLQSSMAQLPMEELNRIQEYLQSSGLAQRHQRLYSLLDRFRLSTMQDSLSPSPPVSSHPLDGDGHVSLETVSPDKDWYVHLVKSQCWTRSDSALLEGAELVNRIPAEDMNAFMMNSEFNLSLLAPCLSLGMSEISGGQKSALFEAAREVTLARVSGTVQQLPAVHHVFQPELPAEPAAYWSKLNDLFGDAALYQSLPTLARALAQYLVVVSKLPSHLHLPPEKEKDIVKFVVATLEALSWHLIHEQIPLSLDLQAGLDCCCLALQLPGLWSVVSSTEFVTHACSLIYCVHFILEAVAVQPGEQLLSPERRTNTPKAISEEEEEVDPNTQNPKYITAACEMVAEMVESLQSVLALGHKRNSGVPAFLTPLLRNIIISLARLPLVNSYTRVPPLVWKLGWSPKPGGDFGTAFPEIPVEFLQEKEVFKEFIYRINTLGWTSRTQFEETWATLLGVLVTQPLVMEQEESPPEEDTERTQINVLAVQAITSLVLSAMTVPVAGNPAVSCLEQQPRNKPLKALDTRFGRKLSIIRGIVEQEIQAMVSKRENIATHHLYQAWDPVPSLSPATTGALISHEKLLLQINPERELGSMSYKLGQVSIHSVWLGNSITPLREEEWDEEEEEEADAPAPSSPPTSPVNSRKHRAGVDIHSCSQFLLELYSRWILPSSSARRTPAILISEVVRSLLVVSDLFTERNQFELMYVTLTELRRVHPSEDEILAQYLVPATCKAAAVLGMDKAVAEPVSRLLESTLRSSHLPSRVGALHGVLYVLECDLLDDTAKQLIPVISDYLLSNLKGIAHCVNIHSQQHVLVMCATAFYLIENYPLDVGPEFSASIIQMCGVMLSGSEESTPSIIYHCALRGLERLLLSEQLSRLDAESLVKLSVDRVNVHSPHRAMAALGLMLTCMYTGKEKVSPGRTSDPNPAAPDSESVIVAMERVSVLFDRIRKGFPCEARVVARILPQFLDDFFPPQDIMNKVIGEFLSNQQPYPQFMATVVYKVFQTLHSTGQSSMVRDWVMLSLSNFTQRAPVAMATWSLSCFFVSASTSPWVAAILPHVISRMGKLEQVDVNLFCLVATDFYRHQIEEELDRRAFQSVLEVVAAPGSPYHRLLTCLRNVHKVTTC

Broadly, the IC50 is the concentration at which inhibition is half-maximal. Read a high IC50 as weaker potency in that assay. Compound `COc1ccc2nc(-c3ccncc3Br)sc2c1` [2-(3-bromopyridin-4-yl)-6-methoxy-1,3-benzothiazole] returned an IC50 of less than 100 nM.

`COc1ccc2nc(-c3ccncc3C#N)ccc2c1` [4-(6-methoxyquinolin-2-yl)pyridine-3-carbonitrile] showed an IC50 of 100 to 500 nM. The figure for `COc1ccc2oc(-c3ncnc(I)c3C#N)cc2c1` [4-iodo-6-(5-methoxy-1-benzofuran-2-yl)pyrimidine-5-carbonitrile] is more than 500 nM. In the case of `Nc1ccc2oc(-c3cccnc3)nc2c1` [2-(pyridin-3-yl)-1,3-benzoxazol-5-amine] it was more than 500 nM; in that of `COc1ccc2oc(-c3ccncc3C#N)cc2c1` [4-(5-methoxy-1-benzofuran-2-yl)pyridine-3-carbonitrile], less than 100 nM. The figure for `COc1cc2cc(-c3ccncc3C#N)oc2cn1` [4-{5-methoxyfuro[2,3-c]pyridin-2-yl}pyridine-3-carbonitrile] is less than 100 nM; for `COc1ccc2oc(C3=C(C#N)SC4=NCCN43)cc2c1` [3-(5-methoxy-1-benzofuran-2-yl)-5H,6H-imidazo[2,1-b][1,3]thiazole-2-carbonitrile] it is less than 100 nM.

For the compound `COc1ccc2oc(-c3ccncc3)c(Br)c2c1` [4-(3-bromo-5-methoxy-1-benzofuran-2-yl)pyridine], the IC50 was less than 100 nM. In the case of `COc1ccc2oc(-c3cccc(NC(C)=O)n3)cc2c1` [N-[6-(5-methoxy-1-benzofuran-2-yl)pyridin-2-yl]acetamide] it was less than 100 nM; in that of `COc1ccc2oc(-c3cccc4cn[nH]c34)cc2c1` [7-(5-methoxy-1-benzofuran-2-yl)-1H-indazole], less than 100 nM; in that of `FCCOc1ccc2nc(-c3ccncc3Br)sc2c1` [2-(3-bromopyridin-4-yl)-6-(2-fluoroethoxy)-1,3-benzothiazole], less than 100 nM. Consider `COc1ccc2nc(-c3ccncc3F)sc2c1` [2-(3-fluoropyridin-4-yl)-6-methoxy-1,3-benzothiazole], for which the IC50 was less than 100 nM. For the compound `O=c1[nH]cc(Br)cc1-c1cc2cc(Br)cnc2o1` [5-bromo-3-{5-bromofuro[2,3-b]pyridin-2-yl}-1,2-dihydropyridin-2-one], the half-maximal inhibitory concentration (IC50) is less than 100 nM. The figure for `COc1cnc2oc(-c3ccccc3C#N)cc2c1` [2-{5-methoxyfuro[2,3-b]pyridin-2-yl}benzonitrile] is less than 100 nM; for `COc1ccc2nc(-c3ccccc3C#N)oc2c1` [2-(6-methoxy-1,3-benzoxazol-2-yl)benzonitrile] it is less than 100 nM; for `COc1ccc2oc(-c3cccc(CN(C)C)c3C#N)cc2c1` [2-[(dimethylamino)methyl]-6-(5-methoxy-1-benzofuran-2-yl)benzonitrile] it is 100 to 500 nM. In turn, `N#Cc1cnccc1-c1cc2cc(OCCF)ccc2o1` [4-[5-(2-fluoroethoxy)-1-benzofuran-2-yl]pyridine-3-carbonitrile] returned an IC50 of less than 100 nM. Compound `COc1ccc2oc(-c3ccncc3)c(C#N)c2c1` [5-methoxy-2-(pyridin-4-yl)-1-benzofuran-3-carbonitrile] gave an IC50 of less than 100 nM. The compound `COc1cc2cc(-c3ccccc3C#N)oc2cn1` [2-{5-methoxyfuro[2,3-c]pyridin-2-yl}benzonitrile] registered an IC50 of less than 100 nM. In turn, `COc1ccc2nc(-c3ncccc3C#N)sc2c1` [2-(6-methoxy-1,3-benzothiazol-2-yl)pyridine-3-carbonitrile] showed an IC50 of less than 100 nM. In the case of `CNc1cnccc1-c1nc2ccc(OC)cc2s1` [4-(6-methoxy-1,3-benzothiazol-2-yl)-N-methylpyridin-3-amine], the IC50 is 100 to 500 nM. As for `Oc1ccc2nc(-c3ccncc3Br)sc2c1` [2-(3-bromopyridin-4-yl)-1,3-benzothiazol-6-ol], the IC50 lay in the range of 100 to 500 nM. Take `C#Cc1cnccc1-c1cc2cc(OC)ccc2o1` [3-ethynyl-4-(5-methoxy-1-benzofuran-2-yl)pyridine]: the IC50 is less than 100 nM. For the compound `COc1ccc2oc(-c3ncccc3C#N)cc2c1` [2-(5-methoxy-1-benzofuran-2-yl)pyridine-3-carbonitrile], the IC50 was less than 100 nM.

The compound `COc1cnc2cc(-c3ccncc3C#N)oc2c1` [4-{6-methoxyfuro[3,2-b]pyridin-2-yl}pyridine-3-carbonitrile] had an IC50 of less than 100 nM. In turn, `COCCOc1ccc2oc(-c3ccncc3C#N)cc2c1` [4-[5-(2-methoxyethoxy)-1-benzofuran-2-yl]pyridine-3-carbonitrile] had an IC50 of less than 100 nM. In the case of `COc1ccc2oc(-c3ccc(Br)cc3C#N)cc2c1` [5-bromo-2-(5-methoxy-1-benzofuran-2-yl)benzonitrile] it was less than 100 nM; in that of `COc1ccc2oc(-c3cc(CN(C)C)ccc3C#N)cc2c1` [4-[(dimethylamino)methyl]-2-(5-methoxy-1-benzofuran-2-yl)benzonitrile], less than 100 nM.

The compound `N#Cc1cnccc1-c1nc2ccccc2s1` [4-(1,3-benzothiazol-2-yl)pyridine-3-carbonitrile] gave an IC50 of more than 500 nM. For `COCOc1ccc2oc(-c3cn(C)nc3C#N)cc2c1` [4-[5-(methoxymethoxy)-1-benzofuran-2-yl]-1-methyl-1H-pyrazole-3-carbonitrile], the IC50 was less than 100 nM. In the case of `COc1ccc2nc(-c3ncccc3Br)sc2c1` [2-(3-bromopyridin-2-yl)-6-methoxy-1,3-benzothiazole], the IC50 was less than 100 nM. The compound `COc1ccc2nc(-c3ccccc3C#N)sc2c1` [2-(6-methoxy-1,3-benzothiazol-2-yl)benzonitrile] yielded an IC50 of less than 100 nM. For `COc1ncc2cc(-c3ccccc3C#N)oc2n1` [2-{2-methoxyfuro[2,3-d]pyrimidin-6-yl}benzonitrile], the IC50 is less than 100 nM. The compound `COCOc1ccc2oc(-c3ccncc3C#N)cc2c1` [4-[5-(methoxymethoxy)-1-benzofuran-2-yl]pyridine-3-carbonitrile] came in with an IC50 of less than 100 nM. The figure for `COc1ccc2nc(-c3cccnc3)oc2c1` [6-methoxy-2-(pyridin-3-yl)-1,3-benzoxazole] is 100 to 500 nM; for `Cc1cccc(-c2nc3cc(N)cnc3o2)c1` [2-(3-methylphenyl)-[1,3]oxazolo[5,4-b]pyridin-6-amine] it is more than 500 nM.

Compound `CN(C)c1ccc2nc(-c3ccncc3C#N)sc2c1` [4-[6-(dimethylamino)-1,3-benzothiazol-2-yl]pyridine-3-carbonitrile] showed an IC50 of less than 100 nM. On to `N#Cc1cnccc1-c1nc2ccc(C(F)(F)F)cc2s1` [4-[6-(trifluoromethyl)-1,3-benzothiazol-2-yl]pyridine-3-carbonitrile], for which the IC50 is less than 100 nM. The figure for `Cc1cccc(-c2nc3cc(N)ccc3o2)c1` [2-(3-methylphenyl)-1,3-benzoxazol-5-amine] is 100 to 500 nM. In the case of `COc1ccc2nc(-c3ccncc3C#N)sc2c1` [4-(6-methoxy-1,3-benzothiazol-2-yl)pyridine-3-carbonitrile] it was 100 to 500 nM; in that of `COc1ccc2oc(-c3cccc(Br)c3C#N)cc2c1` [2-bromo-6-(5-methoxy-1-benzofuran-2-yl)benzonitrile], less than 100 nM.

For `COc1ccc2nc(-c3ccc(C#N)cc3)sc2c1` [4-(6-methoxy-1,3-benzothiazol-2-yl)benzonitrile], the IC50 is less than 100 nM. As to `N#Cc1cnccc1-c1cc2cc(O)ccc2o1` [4-(5-hydroxy-1-benzofuran-2-yl)pyridine-3-carbonitrile], the IC50 was less than 100 nM.

As to `COc1ccc2nc(-c3ccnc(C#N)c3)sc2c1` [4-(6-methoxy-1,3-benzothiazol-2-yl)pyridine-2-carbonitrile], the IC50 was less than 100 nM. The figure for `COc1ccc2oc(-c3ccc(C#N)cn3)cc2c1` [6-(5-methoxy-1-benzofuran-2-yl)pyridine-3-carbonitrile] is less than 100 nM; for `N#Cc1cnccc1-c1nc2ccc(OCCF)cc2s1` [4-[6-(2-fluoroethoxy)-1,3-benzothiazol-2-yl]pyridine-3-carbonitrile] it is less than 100 nM. Regarding `COc1ccc2nc(-c3ccncc3C#N)oc2c1` [4-(6-methoxy-1,3-benzoxazol-2-yl)pyridine-3-carbonitrile], the IC50 was less than 100 nM.

As for `COc1ccc2nc(-c3cnccc3C#N)sc2c1` [3-(6-methoxy-1,3-benzothiazol-2-yl)pyridine-4-carbonitrile], the IC50 is less than 100 nM.

In turn, `COc1ccc2sc(-c3ccncc3C#N)nc2c1` [4-(5-methoxy-1,3-benzothiazol-2-yl)pyridine-3-carbonitrile] yielded a concentration for half-maximal inhibition (IC50) of 100 to 500 nM. In the case of `N#Cc1ccccc1-c1cc2cc(Br)cnc2o1` [2-{5-bromofuro[2,3-b]pyridin-2-yl}benzonitrile] it was less than 100 nM. The figure for `OCc1ccc2oc(-c3cccnc3)nc2c1` [[2-(pyridin-3-yl)-1,3-benzoxazol-5-yl]methanol] is more than 500 nM.
